Data taken from patent publication US9675647B2, “Prophylactic and/or therapeutic agent for functional gastrointestinal disorders” (MEIJI CO., LTD., priority 2007, dated 2017).

Tested on: distal colon longitudinal muscle (colon specimen)
Assay: Magnus method, effects of sodium propionate and sodium acetate (Example 5)
Set-up: species or system rat
Conditions: for effect on contractile force (in words) / effect on contraction frequency (in words): Example 5, 10, 30, 100 μL of 0.1 M solution
From the text: Seven-week-old SD type male rats were reared and habituated for one week, then sacrificed to excise the colon. Then, about 1 cm of the longitudinal muscle of the colon was isolated from the distal colon (a portion at about 2 to 3 cm to the appendix side from the anus), and cut into two pieces in the longitudinal layer direction (hereinafter, this is also referred to as colon specimen). Each colon specimen was hung with resting tension of 1 g in a Magnus tube filled with Krebs buffer under the condition described below, and a mixed gas of 95% oxygen and 5% carbon dioxide was passed thereto. Then, the colon specimens were equilibrated for about one hour while changing the Krebs buffer every 15 minutes.
Distilled water was added to 6.92 g of NaCl, 0.35 g of KCl, 0.29 g of MgSO4.7H2O, 0.16 g of KH2PO4, 2.1 g of glucose, 0.28 g of CaCl2, and 2.1 g of NaHCO3 to obtain 1 L. • Temperature of Krebs buffer in the Magnus tube: 32° C. • Volume of Krebs buffer introduced into the Magnus tube: 10 mL. Preparation of Test Substances
These were used as test substance aqueous solutions in the assessment test described below. Meanwhile, distilled water was used as control.
The measurement of tension and observation of muscle conditions were carried out for 15 minutes. Tension measurement charts were recorded using a recorder adjusted such that a 5 cm displacement occurs per tension of 1 g on the measurement charts. The resulting measurement charts were used to observe peaks of tension associated with muscle contraction. The contraction frequency (times/minute) was calculated from the number of peaks (times) that appeared per unit time (minute), the contractile force (g) was calculated from the peak height (cm), and numerical values were used for evaluation. With the obtained results, comparisons between the groups were further assessed for significant differences by the Student's t-test.

[1] = 10 μL of 0.1 mol/L aqueous solution added to 10 mL Krebs buffer
[2] = 30 μL of 0.1 mol/L aqueous solution added to 10 mL Krebs buffer
[3] = 100 μL of 0.1 mol/L aqueous solution added to 10 mL Krebs buffer

Structure (SMILES): CCC(=O)[O-].[Na+] [SODIUM PROPIONATE, sodium propionate]
- CONTRACTILE FORCE [1]: 1.15 ± 0.72 g
- CONTRACTION FREQUENCY [1]: 0.47 ± 0.14 TIMES/MINUTE
- CONTRACTILE FORCE [2]: 1.24 ± 0.77 g
- CONTRACTION FREQUENCY [2]: 0.73 ± 0.19 TIMES/MINUTE
- CONTRACTILE FORCE [3]: 1.20 ± 0.68 g
- CONTRACTION FREQUENCY [3]: 0.73 ± 0.38 TIMES/MINUTE
- effect on contractile force (in words): neither a contractile force-increasing effect nor a contractile force-suppressing effect
- effect on contraction frequency (in words): neither a contraction frequency-enhancing effect nor a contraction frequency-suppressing effect

Structure (SMILES): CC(=O)[O-].[Na+] [SODIUM ACETATE, sodium acetate]
- effect on contractile force (in words): neither a contractile force-increasing effect nor a contractile force-suppressing effect
- effect on contraction frequency (in words): neither a contraction frequency-enhancing effect nor a contraction frequency-suppressing effect
